One assay has as its system MCF-7. The assay is described as follows: MTT cytotoxicity assay, MCF-7. The assay is classed as cell-based.
In the next assay the test system is A2780. Kind of assay: MTT cytotoxicity assay, A2780. The class given is cell-based. (Tetrazolium dyes change colour on reduction, which living cells bring about.)
A further assay deals with HT29. Kind of assay: MTT cytotoxicity assay, HT29. The assay is classed as cell-based.
Assay [1] relates to normal human foetal lung fibroblast (MRC-5). The assay is described as follows: MTT cytotoxicity assay, normal MRC-5 cells. The class given is cell-based. Particulars: MRC5, 72 h, read-out: IC50 (µM ± SD) MRC-5.
In assay [2] the test system is MCF-7, A2780, and HT29 cell lines. The assay is described as follows: MTT cytotoxicity assay, three cancer cell lines taken together. The class given is cell-based. Particulars: read-out: Average IC50.
In assay [3] the test system is MCF-7 cells. The assay is described as follows: Annexin V-FITC/PI staining apoptosis assay. The class given is cell-based. Particulars: MCF-7, 24 h, control 0%.
The test system of assay [4] is MCF-7 cells. The assay is described as follows: Cell cycle analysis. The class given is cell-based.
For another assay, the target named is CDK-2 (Homo sapiens, UniProt P24941). Kind of assay: CDK-2 inhibition, ADP-Glo kinase assay. The class given is biochemical.

This note sets out measurements from article PMC7594867 (Journal of Enzyme Inhibition and Medicinal Chemistry, 2020).

As usually defined, the IC50 is the concentration that inhibits the measured activity by half. For `N#Cc1c(NC(=S)Nc2cccc3ccccc23)c(C(=O)Nc2ccccc2)n2c1CCC2` [Compound 20a, 7-Cyano-6-(3-(naphthalen-1-yl)thioureido)-N-phenyl-2,3-dihydro-1H-pyrrolizine-5-carboxamide], the 50% inhibitory concentration (IC50) in the assay on MCF-7 (Homo sapiens, MCF7, 72 h, read-out: IC50 ± SD, MCF-7) was 420 ± 150 nM; in the assay with A2780 (Homo sapiens, A2780, 72 h, read-out: IC50 ± SD, A2780), 160 ± 10 nM; with HT29 (Homo sapiens, HT-29, 72 h, read-out: IC50 ± SD, HT29), 720 ± 120 nM; in assay [1] it was 0.43 ± 0.13 µM; in assay [2], 430 nM; against CDK-2, 77.9 ± 2.2 nM. The “Selectivity index, MCF-7” value in the assay on MCF-7 (IC50 MRC-5 / IC50 MCF-7) was 1.02. Further, the “Selectivity index, A2780” value in the assay on A2780 (IC50 MRC-5 / IC50 A2780) worked out at 2.69. In addition, the “Selectivity index, HT29” value in the assay with HT29 (IC50 MRC-5 / IC50 HT29) turned out to be 0.60. For the same compound, the apoptotic events in the assay with MCF-7 cells [3] (1 µM) is 38%; in the assay with MCF-7 cells [3] (5 µM), 39%; in the assay on MCF-7 cells [3] (10 µM) it was 47%. The “effect on cell cycle” value in the assay with MCF-7 cells [4] (MCF-7, 24 h, 1, 5, 10 µM) is reported as “G1 -S cell cycle arrest”. Moreover, the “number of cells in the G1 cell-cycle phase” value in the assay with MCF-7 cells [4] (MCF-7, 24 h, highest increase, concentration not given) was 57%.
